Test results as given in the NIST ThermoML archive (doi:10.1016/j.jct.2015.04.021).
Numbers after ± are expanded uncertainties.

Experiment: xn = mol fraction of the nth substance listed
Settings: 101.3 kPa, Liquid, Pycnometric method

SMILES	mass density (303.15 K, x1 = 0.75) [kg/m3]	mass density (303.15 K, x1 = 0.8) [kg/m3]	mass density (303.15 K, x1 = 0.833) [kg/m3]	mass density (313.15 K, x1 = 0.75) [kg/m3]	mass density (313.15 K, x1 = 0.8) [kg/m3]	mass density (313.15 K, x1 = 0.833) [kg/m3]	mass density (323.15 K, x1 = 0.75) [kg/m3]	mass density (323.15 K, x1 = 0.8) [kg/m3]	mass density (323.15 K, x1 = 0.833) [kg/m3]	mass density (333.15 K, x1 = 0.75) [kg/m3]	mass density (333.15 K, x1 = 0.8) [kg/m3]	mass density (333.15 K, x1 = 0.833) [kg/m3]
CC(=O)CCC(=O)O [4-oxopentanoic acid] + C[N+](C)(C)CCO.[Cl-]	1134.6 ± 1.1	1134.1 ± 1.1	1133.7 ± 1.1	1127.6 ± 1.1	1127.3 ± 1.1	1127 ± 1.1	1120.9 ± 1.2	1120.4 ± 1.2	1120.2 ± 1.2	1113.8 ± 1.2	1113.1 ± 1.2	1113 ± 1.2
OCc1ccco1 [2-hydroxymethylfuran] + C[N+](C)(C)CCO.[Cl-]	1131.8 ± 1.3	1131.5 ± 1.3	1130.9 ± 1.3	1125.2 ± 1.3	1124.3 ± 1.3	1123.8 ± 1.3	1118.6 ± 1.3	1117.1 ± 1.3	1116.6 ± 1.3	1112 ± 1.3	1109.9 ± 1.3	1109.5 ± 1.3
